Assay results published in patent publication US20190343801A1, “COMPOSITIONS AND METHODS FOR CONTROLLING NATURAL KILLER CELL ACTIVATION AND FUNCTION” (BAR ILAN UNIVERSITY, priority 2017, published 2019).
Blank lines part the entries; values can stand above or below the molecule they belong to. Where no end group is shown, it is not given here.

What was measured:
[1] = biological target: T1, SHP-1 (Homo sapiens, UniProt P29350); test: MST analysis for the binding of YFP-SHP-1 and actin-derived peptides; conditions: for binding to SHP-1: lysates of HEK 293T cells expressing YFP-SHP-1, peptides 400 μM-48 nM
T1 construct: expressed in transfected cells; host or cells: HEK 293T cells, unpurified lysate
Text: Binding curves were generated by the NanoTemper analysis software (MO.Affinity Analysis v2.1.3). The graph summarizes the changes of the fluorescent thermophoresis signals as a function of peptide concentration from at least three independent experiments. Data are means±SD.
YFP-tagged SHP-1 was obtained from cell lysates of Human Embryonic Kidney (HEK) 293T cells, transiently transfected with YFP-SHP-1 by DNA-calcium phosphate co-precipitation, as previously described (Reicher B, et al (2012) Molecular and cellular biology 15: 3153-3163). MST measurements were performed using the protein purification-free method described by Khavrutskii et al. (Khavrutskii L, et al (2013) Journal of visualized experiments: JoVE). Briefly, each peptide (Synpeptide) was initially dissolved in Dimethylformamide (DMF), diluted in DDW (supplemented with 1 mM DTT) to reach stock concentration of 80004, and serially diluted (range from 400 μM to 48.8 nM) in HEPES buffer (50 mM, supplemented with 0.05% Tween-20 and 1 mM DTT) in 200 μL PCR-tubes. Then, YFP-SHP-1-containing cell lysate was added to the serially diluted tubes at a 1:1 ratio and the samples were gently mixed. The samples were allowed to incubate at room temperature for 30 min before being loaded into standard-treated Monolith™ capillaries (NanoTemper). After loading into the instrument (Monolith NT.115, NanoTemper), microthermophoresis was carried out using 40% LED power and 40% MST power. The changes of the fluorescent thermophoresis signals were plotted against the concentration of the serially diluted peptides. KD values were determined using the NanoTemper analysis software (MO.Affinity Analysis v2.1.3).
The SHP-1-β-actin complex formation was also examined using microscale thermophoresis (MST) technology. […] Lysates of HEK 293T cells transiently expressing YFP-SHP-1 were incubated with decreasing concentrations of the different peptides followed by MST analysis.

[2] = test system: F-actin retrograde flow in YTS and pNK F-tractin GFP cells; test: Live cell imaging and kymograph analysis of F-actin retrograde flow (ARF) in F-tractin GFP NK cells; assay type: cell-based; conditions: 0.5 μM CytD, anti-CD28 or anti-KIR2DL1
Text: FIGS. […] In FIG. 5A, YTS F-tractin GFP cells were dropped over coverslips coated with anti-CD28 or anti-KIR1 antibodies, and imaged at 1 frame/sec through a single focal plane. […] Representative images are shown. Kymographs of F-actin dynamics were compiled along the contact site radius. […]
The y axis represents F-actin velocity (μm/sec), and the x axis—time from initial spreading (sec).
FIGS. 5E-5H. show analyses of NKIS area and ARF in the activating vs. inhibitory NKIS in the presence of Y-27632 (Y-27) inhibitor of myosin light chain (MLC) phosphorylation and/or JAS. […] NKIS area was determined using ImageJ. […]
Analyses of actin and SHP-1 dynamics were performed by preparing kymographs from live cell videos and tracing the movement of the fluorescently tagged proteins. […] Velocity over distance from the center was determined by calculating the velocity of the tracked protein based on the distance traversed to time between each two points on the trace, and noting the relative location from the center of the measured area. […] For each bin, average velocity and standard error were calculated. Average distance traversed over time was calculated by measuring the location of the trace, relative to its point of origin at each time point after the beginning of the trace. For each relative time point from the beginning of a trace, an average distance and standard error were calculated. […]

[3] = test system: SHP-1; test: PTP assay: SHP-1 catalytic activity (pNPP hydrolysis) after treatment of NK-target cell conjugates; assay type: cell-based; conditions: YTS-2DL1 + 221-Cw4, untreated 100%; 0.5 μM CytD
Procedure: YTS-2DL1 cells were pretreated with 25 μM Y-27 or left untreated. Cells were incubated at 37° C. with target cells for 5 min, 1 μM of JAS was added, and samples were incubated for 5 minutes before lysis. IP of SHP-1 was performed, and precipitates were incubated with pNpp. SHP-1 activity was determined by measuring absorbance at 405 nm. The graph represents rates of SHP-1 catalytic activity from three independent experiments.
In FIG. 8E, YTS-2DL1 cells were incubated at 37° C. with 221-Cw4 or Cw7 cells for 5 min, treated with 0.5 μM of CytD or left untreated, and SHP-1 activity was determined as detailed in the Materials and Methods. Graph summarizing percent of relative SHP-1 catalytic activity obtained by four independent experiments. Data are means±SEM.
SHP-1 catalytic activity was determined by measuring the hydrolysis of the exogenous substrate p-Nitrophenyl Phosphate (pNPP) by SHP-1, as previously described. NK cells (2-5×10^6) were incubated with target cells at ratio of 1:1, activated as described above, and lysed with passive ice-cold lysis buffer (1% Brij, 1% n-Octyl-b-D-glucoside, 50 mM Tris-HCl, pH 7.4, 150 mM NaCl, 5 mM ethylenediaminetetraacetic acid, and complete protease inhibitor tablets). Cell lysates were subjected to IP with anti-SHP-1 antibody. […] Reactions were terminated by adding 800 μl 1M NaOH, and SHP-1 activity was determined by measuring absorbance at 405 nm.

[4] = test system: SHP-1: β-actin complex; test: SHP-1 immunoprecipitation and anti-β-actin immunoblotting in YTS-2DL1 cells incubated with target cells; assay type: cell-based; conditions: inhibitory 221-Cw4 cells; 0.5 μM CytD
Procedure: YTS-2DL1 cells were incubated at 37° C. with 221-Cw4 or Cw7 cells for 5 min, 1 μM of JAS was added, and cells were incubated for 5 min. Cell lysates were subjected to IP of SHP-1 and IB with anti-β-actin or anti-SHP-1 antibodies. Shown data represent at least three independent experiments.
In FIG. 8D, YTS-2DL1 cells were incubated at 37° C. with 221-Cw4 or Cw7 cells for 5 min, 0.5 μM of CytD was added, and the cells were incubated for an additional 5 min. The cells were lysed, and IPs of SHP-1 were subjected to IB using anti-β-actin or anti-SHP-1. Results shown are representative of three independent experiments.
NK cells (primary or YTS) and ‘221’ target cells (either expressing HLA-Cw4, Cw7 or no HLA) were first incubated separately on ice for 10 min, at a ratio of 1:1. The cells were then mixed, centrifuged and kept on ice for 15 min. The cell mixture was then transferred to 37° C., for the indicated period of time, and subsequently lysed with ice-cold lysis buffer.
For analysis of whole cell lysates, 1-10×10^5 cells were used, and for IP experiments, 10-15×10^6 cells were used. Protein A/G plus-Agarose beads (Santa Cruz Biotechnology) were used for IP. […] Immunoreactive proteins were detected with either anti-mouse or anti-rabbit horseradish peroxidase-coupled secondary antibody followed by detection by enhanced chemiluminescence (PerkinElmer).

[5] = biological target: CFP-actin (UniProt P60709); test: FRET between YFP-SHP-1 and CFP-actin in YTS cells at the activating NKIS (221-Cw7 target cells)
[6] = biological target: CFP-actin (UniProt P60709); test: FRET between YFP-SHP-1 and CFP-actin in YTS cells at the inhibitory NKIS (221-Cw4 target cells)
[7] = test system: smooth muscle; conditions: cited from earlier work
[8] = test system: myosin superfamily members from classes I, V, and X; conditions: cited from earlier work
[9] = biological target: YFP-SHP-1 (human SHP-1 wt tagged with YFP) (human) (UniProt P29350); test: MST, lysate of 293T cells expressing YFP-SHP-1 with serially diluted peptide
[10] = biological target: YFP-SHP-1 (human SHP-1 wt tagged with YFP) (human) (UniProt P29350); test: MST, peptide titrated into lysate of HEK 293T cells expressing YFP-SHP-1

T1 sequence (P29350 whole entry): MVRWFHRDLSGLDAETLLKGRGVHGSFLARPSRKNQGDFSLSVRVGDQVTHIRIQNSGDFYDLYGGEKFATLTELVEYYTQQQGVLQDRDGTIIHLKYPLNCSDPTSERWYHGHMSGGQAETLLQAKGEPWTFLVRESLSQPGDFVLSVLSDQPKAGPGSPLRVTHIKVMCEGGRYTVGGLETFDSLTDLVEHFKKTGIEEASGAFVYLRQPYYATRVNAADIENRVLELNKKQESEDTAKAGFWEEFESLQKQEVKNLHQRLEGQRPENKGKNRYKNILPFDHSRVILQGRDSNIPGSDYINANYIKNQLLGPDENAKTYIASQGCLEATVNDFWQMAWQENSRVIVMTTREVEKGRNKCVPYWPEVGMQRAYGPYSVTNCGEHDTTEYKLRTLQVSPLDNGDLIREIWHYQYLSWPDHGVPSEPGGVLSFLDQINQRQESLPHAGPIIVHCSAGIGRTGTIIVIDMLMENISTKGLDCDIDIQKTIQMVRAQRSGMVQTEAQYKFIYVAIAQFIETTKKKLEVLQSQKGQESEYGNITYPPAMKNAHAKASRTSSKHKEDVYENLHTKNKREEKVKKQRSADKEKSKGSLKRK

Molecule: KEKLCYVALDF [WT actin peptide, KEKLCYVALDF]
Kd [1]: 39.5 ± 6.2 µM

Molecule: EYQKASGVSG (irrelevant control peptide)
binding to SHP-1 [1]: no binding was detected

Molecule: C=C1[C@@H](C)[C@H]2C(Cc3ccccc3)NC(=O)[C@]23[C@H](OC(C)=O)/C=C/[C@@](C)(O)C(=O)[C@@H](C)C/C=C/[C@H]3[C@@H]1O (stereo partly drawn) [CytD, Cytochalasin D]
ARF velocity at the LP [2]: significant reduction in ARF velocity
relative SHP-1 catalytic activity [3]: 55.4±8.4%
SHP-1 binding to β-actin [4]: increased binding of SHP-1 to β-actin

Molecule: KEKLCFVALDF (mutant actin peptide) [Y-F mutant, single aa mutant form of the β-actin peptide, tyrosine to phenylalanine substitution]
binding to SHP-1 [1]: no binding was detected

FRET efficiency [5]: 8.5%
FRET efficiency [6]: 18.9%
Molecule: YFP-SHP-1 (human SHP-1 wt tagged with YFP) (from UniProt P29350 1-595) (enzyme)

Molecule: Cc1ccc2c(c1)C(=O)C1(O)CCN(c3ccccc3)C1=N2 (stereo not drawn) [Blebbistatin]
IC50 [7]: 80 µM
inhibition [8]: does not inhibit

EC50 (read off the curve) [9]: 40 µM
Kd [10]: 39.5 µM
Molecule: KEKLCYVALDF [WT β-actin derived peptide containing an ITIM motif (…)]
